Source: patent US20240316130A1 (priority 2023, published 2024)
“Also recorded” adds a separate entry of the source.

Columns and labels:
[1] = system: A9F1 cells; format: cell-based
[2] = system: B16F10 cells; format: cell-based, murine; settings: 24 hours
[3] = system: MYXV; assay: microbe, parasite or virus in culture; format: cell-based, myxoma virus

Row | Compound | rescue of cytostasis by supplement [1] | rescue of MYXV replication by supplement [2] | arginine concentration at which maximal viral replication occurs [3] | EC50 ([3]; Myxoma virus, 24 h, read-out: EC50 of exogenous arginine for production of new infectious MYXV progeny) [µM]
1 | NC(=O)NCCC[C@H](N)C(=O)O [citrulline, L-Citrulline] | could not be rescued | support myxoma virus replication; also recorded: could also rescue MYXV replication |  | 
2 | N=C(N)NCCC[C@H](N)C(=O)O [arginine] |  |  | at least 100 μM | ~50
